The values below come from article PMC6774072, “Azologization and repurposing of a hetero-stilbene-based kinase inhibitor: towards the design of photoswitchable sirtuin inhibitors” (Beilstein Journal of Organic Chemistry, 2019).

Values joined by “and” are separate entries in the source; they are usually repeats but may differ in a detail not shown here. Equal entries are not always repeated.

The target of one series is T1, Sirt1 (Homo sapiens, UniProt Q96EB6).
T1 construct: Expression and purification of Sirt1_133-747; made in house
T1 sequence (Q96EB6 133-747): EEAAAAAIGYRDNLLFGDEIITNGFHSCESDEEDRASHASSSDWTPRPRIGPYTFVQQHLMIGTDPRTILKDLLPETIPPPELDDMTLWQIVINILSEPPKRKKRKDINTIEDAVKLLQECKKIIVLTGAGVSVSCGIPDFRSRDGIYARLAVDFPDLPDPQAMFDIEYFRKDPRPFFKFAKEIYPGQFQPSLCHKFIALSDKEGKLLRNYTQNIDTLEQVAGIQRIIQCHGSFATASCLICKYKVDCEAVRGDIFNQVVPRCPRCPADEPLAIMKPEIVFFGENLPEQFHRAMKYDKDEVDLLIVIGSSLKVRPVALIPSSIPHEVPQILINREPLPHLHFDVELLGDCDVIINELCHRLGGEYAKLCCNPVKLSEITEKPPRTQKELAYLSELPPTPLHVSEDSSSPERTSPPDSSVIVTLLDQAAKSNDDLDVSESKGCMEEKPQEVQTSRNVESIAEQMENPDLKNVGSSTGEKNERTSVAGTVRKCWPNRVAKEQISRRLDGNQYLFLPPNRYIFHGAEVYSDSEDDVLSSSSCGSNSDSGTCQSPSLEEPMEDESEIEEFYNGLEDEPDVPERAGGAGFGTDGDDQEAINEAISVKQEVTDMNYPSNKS
The experiment in a line: fluorescence-based deacetylase assay with Z-Lys(acetyl)-AMC (ZMAL) substrate. Format: biochemical. Conditions: for Sirt1 inhibition: n.i. = no inhibition detected, tested at 100 µM, 50 µM and 10 µM. The method, then: (§1) The influence on deacetylase activity of three human sirtuin isoforms (Sirt1–3) was determined in a fluorescence-based assay, using Z-Lys(acetyl)-AMC (ZMAL) as a substrate. Compared to the lead structure 2a, all compounds except 2e–h show increased inhibitory activity against Sirt2 (Table 1). […] Moreover, a slight increase in selectivity for Sirt2 and Sirt3 over Sirt1 could be observed for 2c, 4a and 4b. […] Though not photoswitchable, compounds 4a and 4b were synthesized to test the influence of a rigid conformation around the C=C double bond on sirtuin inhibition. […] A recently developed fluorescence polarization (FP)-based assay enables mapping of ligand binding to this specific binding site. For 2a an interaction with the selectivity pocket was already implied in the same work. Additionally performed docking studies proposed a binding mode in which 2a mimics the nicotinamide residue of NAD^+, whereas aromatic amino acid residues of the selectivity pocket stabilize the dimethylphenol ring. As photoisomerization in stilbenes and azo dyes is accompanied by a perpendicular twist of the phenyl ring towards the former molecular plane, we assumed that this conformational change should provoke a differential binding situation at least for the dimethylphenol residue in 2a. Unfortunately, binding of 2b and c could not be localised in the vicinity of the selectivity pocket of Sirt2, so that the binding pose remains unclear.
(§2) The photoswitchable diazeno compound 11 was subjected to biological evaluation to test the effect of photoisomerization on the inhibitory activity. The enzyme assay mixture containing 11 was exposed to 5 minutes of 365 nm radiation and compared with the results of a non-irradiated measurement. […] Unfortunately, 365 nm radiation turned out to have only minor effects on the IC50 values of 11 (Table 3).
(§3) Cloning, expression and purification of recombinant proteins: Expression and purification of Sirt1_133-747, Sirt2_56−356, and Sirt3_118−395 was carried out as described previously. Identity and purity were verified by SDS-PAGE [65]. Protein concentration was determined by the Bradford assay.
(§4) Bioassay: The inhibitory effect of compounds 2a–h, 4a/b, 8a and 11 on Sirt1–3 was detected via a previously reported fluorescence based assay. The synthetic substrate Z-Lys(acetyl)-AMC (ZMAL) is deacetylated by sirtuins, followed by tryptic digestion and thereby release of […], leading to a fluorescent readout. Inhibition was determined by comparing percentage substrate conversion to a DMSO control after subtraction of the blank fluorescence signal. All compounds were tested at 100 µM, 50 µM and 10 µM, respectively. […] IC50 values were calculated with OriginPro 9.0 G using a non-linear regression to fit the dose response curve. An enzyme-free blank control and a 100% conversion control using AMC instead of ZMAL were measured as well. Inhibition measurements were performed in biological duplicates for all compounds.

Another series addresses T2, Sirt2 (Homo sapiens, UniProt Q8IXJ6).
T2 construct: Sirt2_56−356; made in house
T2 sequence (Q8IXJ6 56-356): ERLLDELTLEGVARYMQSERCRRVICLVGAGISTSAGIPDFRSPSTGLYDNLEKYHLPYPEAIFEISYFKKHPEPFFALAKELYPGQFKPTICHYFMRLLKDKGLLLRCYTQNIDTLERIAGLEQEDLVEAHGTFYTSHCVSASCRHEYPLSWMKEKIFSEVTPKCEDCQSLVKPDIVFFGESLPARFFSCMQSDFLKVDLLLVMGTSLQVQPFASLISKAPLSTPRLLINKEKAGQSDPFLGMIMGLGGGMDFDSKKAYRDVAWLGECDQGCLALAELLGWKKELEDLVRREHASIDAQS
Described as above. Format: biochemical. Conditions: for IC50: mean ± SD of duplicate experiments, read-out: Sirt2 inhibition IC50; for inhibition at 10 µM / inhibition at 50 µM: percent inhibition relative to controls. How it is done:
as §1, §2, §3, §4

Another series concerns the target T3, Sirt3 (Homo sapiens, UniProt Q9NTG7).
T3 construct: Sirt3_118−395; made in house
T3 sequence (Q9NTG7 118-395): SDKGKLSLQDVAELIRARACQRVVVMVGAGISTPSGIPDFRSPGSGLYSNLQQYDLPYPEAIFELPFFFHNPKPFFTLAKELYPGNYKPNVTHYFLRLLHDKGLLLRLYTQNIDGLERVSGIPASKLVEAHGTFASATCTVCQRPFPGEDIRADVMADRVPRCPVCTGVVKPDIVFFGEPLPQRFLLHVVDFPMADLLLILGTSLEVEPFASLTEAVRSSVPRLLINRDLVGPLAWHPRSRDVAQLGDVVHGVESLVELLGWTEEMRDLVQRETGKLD
The series is described as above. Format: biochemical. The conditions noted are these: for IC50: mean ± SD of duplicate experiments, read-out: Sirt3 inhibition IC50; for inhibition at 50 µM / inhibition at 10 µM: percent inhibition relative to controls; for Sirt3 inhibition: n.i. = no inhibition detected, tested at 100 µM, 50 µM and 10 µM. The method, then:
as §1, §2, §3, §4

A short description of series [1]: E→Z photoisomerization of azastilbenes under 254 nm irradiation, proton NMR analysis. Format: physicochemical. Conditions: after 100 minutes of 254 nm irradiation, 10 mM in methanol. The method, then:
Photochemistry of compounds 2b and 2f was investigated via UV–vis spectroscopy, LC–HRMS and NMR spectroscopy. Compound 2b represents the core structure of the azastilbenes investigated, whereas in 2f the influence of ortho methylation was intended to be examined. For UV–vis spectroscopy 50 µM solutions in 5% DMSO (v/v) in enzyme assay buffer were used, as this reflects the enzyme assay conditions. However, for LC-HRMS and NMR analysis, a higher concentration of 10 mM in methanol was necessary to receive reliable chromatograms and spectra.
LC–HRMS analysis provided deeper insights and clarified the differential behaviour observed in the UV–vis spectra of 2b and 2f after UV irradiation. As anticipated, UV irradiation lead to E→Z isomerization of the C=C double bond in both compounds. […] Unfortunately, the amount of photoisomerization was only moderate, since after 100 minutes of continuous irradiation still substantial amounts of the (E)-isomers were present in the mixtures (Figure 3). Proton NMR analysis implied photostationary states comprising a relative percentage of 45% (Z)-2b and 57% (Z)-2f, respectively after 100 minutes of 254 nm irradiation. The NMR spectra can be found in Supporting Information File 1.
Photochemistry: All photoisomerization experiments were conducted under ruby light of 630 nm. […]

Where [2] appears, read: percent inhibition relative to controls.

As usually defined, the inhibition is the percentage by which the read-out fell short of the control. Read a low inhibition as a weak effect. One may read the IC50 as the point on the concentration scale where inhibition reaches its midpoint. `Cc1cc(O)cc(C)c1/C=C/c1cncc(C(N)=O)c1` [Compound 2a, reference compound] had an inhibition at 50 µM at Sirt1 (setting [2]) of 27%. The results for the half-inhibitory concentration (IC50) on Sirt2 and on Sirt3 were 24.6 ± 2.8 µM and 41.7 ± 2 µM, respectively.

For the compound `NC(=O)c1cncc(/C=C/c2ccccc2)c1` [Compound 2b, (E)-5-Styrylnicotinamide], in series [1], the “relative percentage of (Z)-isomer in photostationary state” value came out at 45%. The same compound showed an inhibition at 10 µM at Sirt1 (setting [2]) of 71%. At Sirt2, the IC50 was found to be 8.7 ± 0.2 µM. This compound also showed an inhibition at 50 µM at Sirt3 of 89%.

Turning to `NC(=O)c1cncc(/C=C/c2ccc(F)cc2)c1` [Compound 2c, (E)-5-(4-Fluorostyryl)nicotinamide], at Sirt1 (@ 100 µM, percent inhibition relative to controls), at 100 µM the inhibition was 51%. In addition, the IC50 was ~7 µM and 6.6 µM at Sirt2; 7.5 ± 0.9 µM at Sirt3.

For `COc1ccc(/C=C/c2cncc(C(N)=O)c2)cc1` [Compound 2d], the inhibition at 10 µM worked out at 51% against Sirt1 (setting [2]) and 64% at Sirt2. For the same compound, the inhibition at 50 µM against Sirt3 is 90%.

Regarding `NC(=O)c1cncc(/C=C/c2cccc(OCc3ccccc3)c2)c1` [Compound 2e], the inhibition at 50 µM against Sirt1 (setting [2]) worked out at 61%; against Sirt2 it was 69%; against Sirt3, 60%.

Regarding `COc1cc(C)c(/C=C/c2cncc(C(N)=O)c2)c(C)c1` [Compound 2f], in series [1], the “relative percentage of (Z)-isomer in photostationary state” value is listed as 57%. In addition, the inhibition at 10 µM is 26% against Sirt1 (setting [2]) and 21% against Sirt2. Besides, at Sirt3, 50 µM produced 79% inhibition.

Take `NC(=O)c1cncc(/C=C/c2ccc3c(c2)OCO3)c1` [Compound 2g]: the inhibition at 50 µM on Sirt1 (setting [2]) stood at 52%; against Sirt2, 62%; against Sirt3, 87%.

Regarding `NC(=O)c1cncc(/C=C/c2cccc(NC(=O)c3ccc(OCc4ccccc4)cc3)c2)c1` [Compound 2h], the Sirt1 inhibition result at Sirt1 is listed as “n.i”. This compound also registered an inhibition at 10 µM against Sirt2 of 9%. Moreover, the Sirt3 inhibition entry on Sirt3 is listed as “n.i”.

For `NC(=O)c1cncc(C2=Cc3ccccc3CC2)c1` [Compound 4a], the Sirt1 inhibition entry at Sirt1 is “complete loss of activity and n.i”. Besides, the inhibition at 10 µM on Sirt2 was found to be 48%; against Sirt3 it was 38%.

In the case of `NC(=O)c1cncc(-c2ccc3ccccc3c2)c1` [Compound 4b], the Sirt1 inhibition result at Sirt1 is “complete loss of activity and n.i”. Further, the results for the inhibition at 10 µM on Sirt2 and against Sirt3 were 45% and 38%, respectively.

By melting point is commonly meant the temperature of the solid-liquid transition. On to `NC(=O)c1cnc2c(ccc3ccccc32)c1` [Compound 8a], for which the melting point turned out to be 276.8 °C. On Sirt1, the Sirt1 inhibition entry is “complete inactivity and n.i”. For the same compound, the Sirt2 inhibition result at Sirt2 (n.i. = no inhibition detected, tested at 100 µM, 50 µM and 10 µM) was “complete inactivity and n.i”. The Sirt3 inhibition entry on Sirt3 was “complete inactivity and n.i”.
